Measured values: PubChem BioAssay AID248 (DTP/NCI, 2004)
Values joined by “and” are separate entries in the source; they are usually repeats but may differ in a detail not shown here. Equal entries are not always repeated. Inconclusive results and toxic doses are left out. No stated cut-off is given here; in the data, active means T/C of 150% or more; inactive means T/C below 125%.

Test system: L1210 leukemia ip in BDF1 mice, survival T/C
Experiment: NCI In Vivo Anticancer Drug Screen. Data for tumor model L1210 Leukemia (intraperitoneal) in B6D2F1 (BDF1) mice
Conditions: endpoint: mean survival time, higher = longer survival
Description: The antitumor activity of compounds was measured in mice bearing transplantable tumors. Survival or tumor size were measured and the results are expressed as the measurement made in the treated group (T) divided by the measurement made in the vehicle treated control group (C). The tumor model used in this assay is L1210 Leukemia (intraperitoneal) in B6D2F1 (BDF1) mice

[1] = dose: 100.0 mg/kg/injection, schedule: Q01DX001 (ip), vehicle: saline with Tween-80
[2] = dose: 100.0 mg/kg/injection, schedule: Q04DX002 (ip), vehicle: saline with Tween-80
[3] = dose: 100.0 mg/kg/injection, schedule: Q04DX003 (ip), vehicle: saline with Tween-80
[4] = dose: 200.0 mg/kg/injection, schedule: Q01DX001 (ip), vehicle: saline with Tween-80
[5] = dose: 200.0 mg/kg/injection, schedule: Q01DX009 (ip), vehicle: saline with Tween-80
[6] = dose: 200.0 mg/kg/injection, schedule: Q04DX002 (ip), vehicle: saline with Tween-80
[7] = dose: 400.0 mg/kg/injection, schedule: Q01DX001 (ip), vehicle: saline with Tween-80
[8] = dose: 400.0 mg/kg/injection, schedule: Q04DX002 (ip), vehicle: saline with Tween-80
[9] = dose: 100.0 mg/kg/injection, schedule: Q01DX009 (ip), vehicle: saline
[10] = dose: 200.0 mg/kg/injection, schedule: Q01DX009 (ip), vehicle: saline

Measured: T/C

CCOC(=O)c1ccc(NC(=O)Nc2cc(OC)ccc2OC)cc1
inactive: dose: 25.0 mg/kg/injection, schedule: Q01DX009 (ip), vehicle: saline with Tween-80 100 % of control and 91 % of control | dose: 50.0 mg/kg/injection, schedule: Q01DX009 (ip), vehicle: saline with Tween-80 95 % of control | [1] 98 % of control | [2] 96 % of control | [3] 96 % of control | [4] 95 % of control | [5] 91 % of control | [6] 100 % of control | [7] 91 % of control | [8] 94 % of control

NO
inactive: dose: 62.5 mg/kg/injection, schedule: Q01DX Z (oral), vehicle: saline 102 % of control | dose: 125.0 mg/kg/injection, schedule: Q01DX Z (oral), vehicle: saline 104 % of control | dose: 250.0 mg/kg/injection, schedule: Q01DX Z (oral), vehicle: saline 114 % of control

O=C(O)c1ccc(N=Cc2cccc([N+](=O)[O-])c2)cc1
inactive: [1] 106 % of control | dose: 100.0 mg/kg/injection, schedule: Q01DX009 (ip), vehicle: saline with Tween-80 100 % of control and 91 % of control | [2] 97 % of control and 91 % of control | [4] 92 % of control | [5] 98 % of control and 122 % of control | [6] 93 % of control and 91 % of control | [7] 95 % of control | dose: 400.0 mg/kg/injection, schedule: Q01DX009 (ip), vehicle: saline with Tween-80 102 % of control and 88 % of control | [8] 93 % of control and 88 % of control

CC12C=CC(=O)C=C1CCC1C2C(O)CC2(C)C1CCC2(O)C(=O)COC(=O)CCCc1ccc(N(CCCl)CCCl)cc1 (stereo not drawn)
inactive: dose: 12.5 mg/kg/injection, schedule: Q01DX009 (ip), vehicle: Klucel (hydroxypropylcellulose) (HPC) 116 % of control | dose: 12.5 mg/kg/injection, schedule: Q04DX003 (ip), vehicle: Klucel (hydroxypropylcellulose) (HPC) 97 % of control | dose: 15.0 mg/kg/injection, schedule: Q01DX009 (ip), vehicle: saline with Tween-80 107 % of control | dose: 25.0 mg/kg/injection, schedule: Q01DX009 (ip), vehicle: Klucel (hydroxypropylcellulose) (HPC) 122 % of control | dose: 25.0 mg/kg/injection, schedule: Q04DX003 (ip), vehicle: Klucel (hydroxypropylcellulose) (HPC) 110 % of control | dose: 30.0 mg/kg/injection, schedule: Q01DX009 (ip), vehicle: saline with Tween-80 114 % of control | dose: 50.0 mg/kg/injection, schedule: Q01DX009 (ip), vehicle: Klucel (hydroxypropylcellulose) (HPC) 124 % of control | dose: 50.0 mg/kg/injection, schedule: Q04DX003 (ip), vehicle: Klucel (hydroxypropylcellulose) (HPC) 109 % of control | dose: 60.0 mg/kg/injection, schedule: Q01DX009 (ip), vehicle: saline with Tween-80 108 % of control | dose: 75.0 mg/kg/injection, schedule: Q01DX001 (sc), vehicle: steriod suspending solution 103 % of control | dose: 150.0 mg/kg/injection, schedule: Q01DX001 (sc), vehicle: steriod suspending solution 111 % of control | dose: 300.0 mg/kg/injection, schedule: Q01DX001 (sc), vehicle: steriod suspending solution 108 % of control

O=C(C(Br)C(Br)c1ccccc1)C(Br)C(Br)c1ccccc1 (stereo not drawn)
inactive: dose: 100.0 mg/kg/injection, schedule: Q04DX003 (ip), vehicle: saline sonified 101 % of control | dose: 200.0 mg/kg/injection, schedule: Q04DX003 (ip), vehicle: saline sonified 105 % of control | dose: 400.0 mg/kg/injection, schedule: Q04DX003 (ip), vehicle: saline sonified 97 % of control

CC(C)(C)c1cc(/C=N/NC(=O)CNC(=O)Nc2cccc(C(F)(F)F)c2)cc(C(C)(C)C)c1O
inactive: dose: 100.0 mg/kg/injection, schedule: Q01DX001 (ip), vehicle: gum acacia 92 % of control and 94 % of control | dose: 100.0 mg/kg/injection, schedule: Q04DX002 (ip), vehicle: gum acacia 98 % of control and 90 % of control | dose: 100.0 mg/kg/injection, schedule: Q04DX003 (ip), vehicle: gum acacia 99 % of control and 87 % of control | dose: 200.0 mg/kg/injection, schedule: Q01DX001 (ip), vehicle: gum acacia 94 % of control and 90 % of control | dose: 200.0 mg/kg/injection, schedule: Q04DX002 (ip), vehicle: gum acacia 93 % of control | dose: 200.0 mg/kg/injection, schedule: Q04DX003 (ip), vehicle: gum acacia 92 % of control and 96 % of control | dose: 400.0 mg/kg/injection, schedule: Q01DX001 (ip), vehicle: gum acacia 94 % of control and 102 % of control | dose: 400.0 mg/kg/injection, schedule: Q04DX002 (ip), vehicle: gum acacia 93 % of control and 87 % of control | dose: 400.0 mg/kg/injection, schedule: Q04DX003 (ip), vehicle: gum acacia 92 % of control and 89 % of control

O=[N+]([O-])c1ccc(-[n+]2ccccc2)c([N+](=O)[O-])c1
inactive: dose: 18.75 mg/kg/injection, schedule: Q01DX009 (ip), vehicle: saline 105 % of control | dose: 25.0 mg/kg/injection, schedule: Q01DX009 (ip), vehicle: saline 105 % of control | dose: 37.5 mg/kg/injection, schedule: Q01DX009 (ip), vehicle: saline 103 % of control | dose: 50.0 mg/kg/injection, schedule: Q01DX009 (ip), vehicle: saline 103 % of control | dose: 75.0 mg/kg/injection, schedule: Q01DX009 (ip), vehicle: saline 102 % of control | [9] 102 % of control | dose: 150.0 mg/kg/injection, schedule: Q01DX009 (ip), vehicle: saline 112 % of control

CCCCC(=O)N1CCCCC1C (stereo not drawn)
inactive: dose: 50.0 mg/kg/injection, schedule: Q01DX001 (ip), vehicle: carboxymethylcellulose (CMC) 102 % of control | dose: 50.0 mg/kg/injection, schedule: Q01DX009 (ip), vehicle: carboxymethylcellulose (CMC) 94 % of control and 100 % of control | dose: 50.0 mg/kg/injection, schedule: Q04DX003 (ip), vehicle: carboxymethylcellulose (CMC) 96 % of control | dose: 100.0 mg/kg/injection, schedule: Q01DX001 (ip), vehicle: carboxymethylcellulose (CMC) 101 % of control | dose: 100.0 mg/kg/injection, schedule: Q01DX009 (ip), vehicle: carboxymethylcellulose (CMC) 97 % of control and 98 % of control | dose: 100.0 mg/kg/injection, schedule: Q04DX002 (ip), vehicle: carboxymethylcellulose (CMC) 105 % of control | dose: 100.0 mg/kg/injection, schedule: Q04DX003 (ip), vehicle: carboxymethylcellulose (CMC) 100 % of control | dose: 200.0 mg/kg/injection, schedule: Q01DX001 (ip), vehicle: carboxymethylcellulose (CMC) 101 % of control | dose: 200.0 mg/kg/injection, schedule: Q01DX009 (ip), vehicle: carboxymethylcellulose (CMC) 96 % of control and 97 % of control | dose: 200.0 mg/kg/injection, schedule: Q04DX002 (ip), vehicle: carboxymethylcellulose (CMC) 98 % of control | dose: 200.0 mg/kg/injection, schedule: Q04DX003 (ip), vehicle: carboxymethylcellulose (CMC) 105 % of control | dose: 400.0 mg/kg/injection, schedule: Q04DX002 (ip), vehicle: carboxymethylcellulose (CMC) 102 % of control

O=[N+]([O-])c1ccc(OCCCBr)c(Cl)c1
inactive: [9] 103 % of control | [10] 108 % of control | dose: 400.0 mg/kg/injection, schedule: Q01DX009 (ip), vehicle: saline 120 % of control

OC(C#CC(O)c1ccccc1)c1ccccc1 (stereo not drawn)
inactive: [9] 86 % of control | [3] 97 % of control | [10] 108 % of control | dose: 200.0 mg/kg/injection, schedule: Q04DX003 (ip), vehicle: saline with Tween-80 94 % of control | dose: 400.0 mg/kg/injection, schedule: Q04DX003 (ip), vehicle: saline with Tween-80 87 % of control

CC(C)c1ccc(C(c2ccc(C(C)C)cc2)c2ccc(C(C)C)cc2)cc1
inactive: [1] 104 % of control | [4] 91 % of control

O=C(Nc1nc2ccccc2s1)c1ccc(C(=O)Nc2nc3ccccc3s2)cc1
inactive: dose: 100.0 mg/kg/injection, schedule: Q01DX001 (ip), vehicle: other 93 % of control | dose: 200.0 mg/kg/injection, schedule: Q01DX001 (ip), vehicle: other 90 % of control | dose: 400.0 mg/kg/injection, schedule: Q01DX001 (ip), vehicle: other 91 % of control
